Molecular target: T1, hSERT (Homo sapiens, UniProt P31645)
Test: Inhibition of [3H]5-HT uptake by HEK-hSERT cells
Type: cell-based
Conditions: not given

T1 sequence (P31645 whole entry): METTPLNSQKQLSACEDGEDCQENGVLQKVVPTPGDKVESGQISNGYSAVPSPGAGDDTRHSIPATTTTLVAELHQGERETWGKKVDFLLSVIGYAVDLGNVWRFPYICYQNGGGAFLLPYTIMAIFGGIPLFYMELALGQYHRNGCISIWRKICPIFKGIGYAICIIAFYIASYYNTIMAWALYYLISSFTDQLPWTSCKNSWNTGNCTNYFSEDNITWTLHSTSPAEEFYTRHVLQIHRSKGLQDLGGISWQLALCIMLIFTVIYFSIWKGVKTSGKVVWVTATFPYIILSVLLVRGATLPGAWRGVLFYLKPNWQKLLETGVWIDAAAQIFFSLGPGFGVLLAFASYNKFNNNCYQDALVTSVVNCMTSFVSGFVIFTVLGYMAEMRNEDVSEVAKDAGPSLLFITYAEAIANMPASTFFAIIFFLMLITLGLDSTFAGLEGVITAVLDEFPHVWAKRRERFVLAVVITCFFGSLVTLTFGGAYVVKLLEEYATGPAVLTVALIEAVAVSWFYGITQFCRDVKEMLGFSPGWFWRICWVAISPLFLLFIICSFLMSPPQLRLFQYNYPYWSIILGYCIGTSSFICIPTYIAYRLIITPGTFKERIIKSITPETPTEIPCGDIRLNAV

Row | Compound | IC50 [nM]
1 | CNC(COC)C(=O)c1ccc(C)cc1 (stereo not shown) [Mexedrone, 3-methoxy-2-(methylamino)-1-(p-tolyl)propan-1-one] | 5400 ± 1200
2 | CNC(C)Cc1ccc2c(c1)CCO2 (stereo not shown) [5-MAPDB, 1-(2,3-dihydrobenzofuran-5-yl)-N-methylpropan-2-amine] | 113 ± 30
3 | CC(C(=O)c1ccc(Cl)cc1)N1CCCC1 (stereo not drawn) [4-Cl-α-PPP, 4’-chloro-α-pyrrolidinopropiophenone] | 6400 ± 1500
4 | CCCCC(C(=O)c1ccc(C)cc1)N1CCCC1 (stereo not drawn) [4-Me-α-PHP, 4’-methyl-α–pyrrolidinohexanophenone] | 1580 ± 400
5 | CN[C@@H](C)Cc1ccccc1 [METH, methamphetamine, reference compound] | 9300 ± 1100
6 | CCCCC(C(=O)c1ccc(F)cc1)N1CCCC1 (stereo not drawn) [4-F-α-PHP, 4’-fluoro-α–pyrrolidinohexanophenone] | 9110 ± 540
7 | CCCC(Cc1ccccc1)N1CCCC1 (stereo not shown) [Prolintane, 1-[1-(phenylmethyl)butyl]-pyrrolidine] | 1110 ± 350

Same assay, conditions: compared to 4-F-α-PVP

Row | Compound | fold higher hSERT uptake potency [fold]
8 | CCCC(Cc1ccccc1)N1CCCC1 (stereo not shown) [Prolintane, 1-[1-(phenylmethyl)butyl]-pyrrolidine] | 40

Same assay, conditions: compared to MCAT

Row | Compound | fold higher hSERT uptake potency [fold]
9 | CNC(C)C(=O)c1cccc(C)c1 (stereo not shown) [3-MMC, 3-methylmethcathinone] | 6.5

Same assay, conditions: uptake inhibition potencies

Row | Compound | selectivity for SERT over DAT (uptake potency) [fold]
10 | CNC(C)Cc1ccc2c(c1)CCO2 (stereo not shown) [5-MAPDB, 1-(2,3-dihydrobenzofuran-5-yl)-N-methylpropan-2-amine] | 25

Molecular target: T2, hNET (Homo sapiens, UniProt P23975)
Test: biochemical
Type: binding
Conditions: not given

T2 sequence (P23975 whole entry): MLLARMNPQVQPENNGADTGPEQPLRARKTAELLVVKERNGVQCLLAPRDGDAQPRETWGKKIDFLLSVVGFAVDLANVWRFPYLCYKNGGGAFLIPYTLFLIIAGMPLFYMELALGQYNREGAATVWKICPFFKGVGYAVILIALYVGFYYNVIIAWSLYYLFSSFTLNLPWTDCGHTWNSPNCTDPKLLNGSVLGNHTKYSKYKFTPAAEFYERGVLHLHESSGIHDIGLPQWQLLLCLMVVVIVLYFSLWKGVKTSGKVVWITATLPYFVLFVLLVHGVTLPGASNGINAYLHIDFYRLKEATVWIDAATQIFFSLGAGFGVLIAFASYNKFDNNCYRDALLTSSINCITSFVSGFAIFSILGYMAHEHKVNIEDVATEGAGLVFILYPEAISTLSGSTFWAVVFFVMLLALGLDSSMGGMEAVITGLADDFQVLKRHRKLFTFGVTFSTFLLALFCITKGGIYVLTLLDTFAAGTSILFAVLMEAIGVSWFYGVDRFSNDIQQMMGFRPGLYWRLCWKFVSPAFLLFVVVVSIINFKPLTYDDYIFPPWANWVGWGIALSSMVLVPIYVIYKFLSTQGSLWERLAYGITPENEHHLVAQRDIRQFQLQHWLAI

Row | Compound | Ki [nM]
11 | CNC(COC)C(=O)c1ccc(C)cc1 (stereo not shown) [Mexedrone, 3-methoxy-2-(methylamino)-1-(p-tolyl)propan-1-one] | > 27600
12 | CNC(C)Cc1ccc2c(c1)CCO2 (stereo not shown) [5-MAPDB, 1-(2,3-dihydrobenzofuran-5-yl)-N-methylpropan-2-amine] | > 30000
13 | CC(C(=O)c1ccc(Cl)cc1)N1CCCC1 (stereo not drawn) [4-Cl-α-PPP, 4’-chloro-α-pyrrolidinopropiophenone] | 3580 ± 920
14 | CCCCC(C(=O)c1ccc(C)cc1)N1CCCC1 (stereo not drawn) [4-Me-α-PHP, 4’-methyl-α–pyrrolidinohexanophenone] | 750 ± 160
15 | CN[C@@H](C)Cc1ccccc1 [METH, methamphetamine, reference compound] | 2510 ± 240
16 | CCCCC(C(=O)c1ccc(F)cc1)N1CCCC1 (stereo not drawn) [4-F-α-PHP, 4’-fluoro-α–pyrrolidinohexanophenone] | 1730 ± 250
17 | CCCC(Cc1ccccc1)N1CCCC1 (stereo not shown) [Prolintane, 1-[1-(phenylmethyl)butyl]-pyrrolidine] | 560 ± 190

Same assay, conditions: read-out: Inhibition of [125I]RTI-55 binding Ki ± sem, hNET; HEK-hNET membranes

Row | Compound | Ki [nM]
18 | CNC(C)C(=O)c1cccc(C)c1 (stereo not shown) [3-MMC, 3-methylmethcathinone] | 2850 ± 720

Molecular target: T1, hSERT
Test: Inhibition of [125I]RTI-55 binding, HEK-hSERT membranes
Conditions: not given

Row | Compound | Ki [nM]
19 | CNC(COC)C(=O)c1ccc(C)cc1 (stereo not shown) [Mexedrone, 3-methoxy-2-(methylamino)-1-(p-tolyl)propan-1-one] | 22200 ± 6200
20 | CNC(C)Cc1ccc2c(c1)CCO2 (stereo not shown) [5-MAPDB, 1-(2,3-dihydrobenzofuran-5-yl)-N-methylpropan-2-amine] | 8800 ± 1700
21 | CC(C(=O)c1ccc(Cl)cc1)N1CCCC1 (stereo not drawn) [4-Cl-α-PPP, 4’-chloro-α-pyrrolidinopropiophenone] | 12700 ± 3200
22 | CCCCC(C(=O)c1ccc(C)cc1)N1CCCC1 (stereo not drawn) [4-Me-α-PHP, 4’-methyl-α–pyrrolidinohexanophenone] | 4780 ± 260
23 | CN[C@@H](C)Cc1ccccc1 [METH, methamphetamine, reference compound] | 150000 ± 17000
24 | CCCCC(C(=O)c1ccc(F)cc1)N1CCCC1 (stereo not drawn) [4-F-α-PHP, 4’-fluoro-α–pyrrolidinohexanophenone] | 8010 ± 840
25 | CCCC(Cc1ccccc1)N1CCCC1 (stereo not shown) [Prolintane, 1-[1-(phenylmethyl)butyl]-pyrrolidine] | 2520 ± 330

Same assay, conditions: compared to MCAT

Row | Compound | fold higher hSERT affinity
26 | CNC(C)C(=O)c1cccc(C)c1 (stereo not shown) [3-MMC, 3-methylmethcathinone] | ~ 40 fold

Molecular target: T1, hSERT
Test: Drug-induced release of preloaded [3H]5-HT from HEK-hSERT cells
Type: cell-based
Conditions: not given

Row | Compound | EC50 [nM]
27 | CNC(COC)C(=O)c1ccc(C)cc1 (stereo not shown) [Mexedrone, 3-methoxy-2-(methylamino)-1-(p-tolyl)propan-1-one] | 26100 ± 9300
28 | CNC(C)Cc1ccc2c(c1)CCO2 (stereo not shown) [5-MAPDB, 1-(2,3-dihydrobenzofuran-5-yl)-N-methylpropan-2-amine] | 340 ± 35
29 | CN[C@@H](C)Cc1ccccc1 [METH, methamphetamine, reference compound] | 14500 ± 4200

Same assay, conditions: [3H]5-HT release

Row | Compound | releasing efficacy at hSERT
30 | CNC(COC)C(=O)c1ccc(C)cc1 (stereo not shown) [Mexedrone, 3-methoxy-2-(methylamino)-1-(p-tolyl)propan-1-one] | full efficacy
31 | CNC(C)Cc1ccc2c(c1)CCO2 (stereo not shown) [5-MAPDB, 1-(2,3-dihydrobenzofuran-5-yl)-N-methylpropan-2-amine] | fully efficacious

Same assay, conditions: relative to maximal AUC induced by METH (0.3–1 mM)

Row | Compound | % maximum release ± sem, hSERT [3H]5-HT [%]
32 | CNC(COC)C(=O)c1ccc(C)cc1 (stereo not shown) [Mexedrone, 3-methoxy-2-(methylamino)-1-(p-tolyl)propan-1-one] | 84 ± 13
33 | CNC(C)Cc1ccc2c(c1)CCO2 (stereo not shown) [5-MAPDB, 1-(2,3-dihydrobenzofuran-5-yl)-N-methylpropan-2-amine] | 95.7 ± 8.9
34 | CN[C@@H](C)Cc1ccccc1 [METH, methamphetamine, reference compound] | 101.8 ± 3.1

Molecular target: T3, hDAT (Homo sapiens, UniProt Q01959)
Test: Inhibition of [3H]DA uptake by HEK-hDAT cells
Type: cell-based
Conditions: not given

T3 sequence (Q01959 whole entry): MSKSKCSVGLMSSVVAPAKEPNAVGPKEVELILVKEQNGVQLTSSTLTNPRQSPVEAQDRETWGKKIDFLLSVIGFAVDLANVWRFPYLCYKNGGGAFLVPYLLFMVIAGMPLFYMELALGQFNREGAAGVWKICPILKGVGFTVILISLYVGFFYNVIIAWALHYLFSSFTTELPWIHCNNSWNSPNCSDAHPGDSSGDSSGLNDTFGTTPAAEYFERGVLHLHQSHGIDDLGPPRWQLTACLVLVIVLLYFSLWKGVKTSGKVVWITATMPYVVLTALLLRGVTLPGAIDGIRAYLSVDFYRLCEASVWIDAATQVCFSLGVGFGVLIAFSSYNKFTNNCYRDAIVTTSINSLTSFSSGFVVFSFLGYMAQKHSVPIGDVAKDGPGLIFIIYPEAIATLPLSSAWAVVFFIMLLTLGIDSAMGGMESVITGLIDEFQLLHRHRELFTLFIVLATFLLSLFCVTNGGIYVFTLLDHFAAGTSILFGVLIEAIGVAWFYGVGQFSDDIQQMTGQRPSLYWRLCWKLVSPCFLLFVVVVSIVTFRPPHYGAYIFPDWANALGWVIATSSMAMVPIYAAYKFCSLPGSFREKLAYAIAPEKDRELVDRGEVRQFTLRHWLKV

Row | Compound | IC50 [nM]
35 | CNC(COC)C(=O)c1ccc(C)cc1 (stereo not shown) [Mexedrone, 3-methoxy-2-(methylamino)-1-(p-tolyl)propan-1-one] | 2750 ± 220
36 | CNC(C)Cc1ccc2c(c1)CCO2 (stereo not shown) [5-MAPDB, 1-(2,3-dihydrobenzofuran-5-yl)-N-methylpropan-2-amine] | 2790 ± 800
37 | CC(C(=O)c1ccc(Cl)cc1)N1CCCC1 (stereo not drawn) [4-Cl-α-PPP, 4’-chloro-α-pyrrolidinopropiophenone] | 730 ± 130
38 | CCCCC(C(=O)c1ccc(C)cc1)N1CCCC1 (stereo not drawn) [4-Me-α-PHP, 4’-methyl-α–pyrrolidinohexanophenone] | 13.2 ± 3.6
39 | CN[C@@H](C)Cc1ccccc1 [METH, methamphetamine, reference compound] | 97 ± 13
40 | CCCCC(C(=O)c1ccc(F)cc1)N1CCCC1 (stereo not drawn) [4-F-α-PHP, 4’-fluoro-α–pyrrolidinohexanophenone] | 38.2 ± 4.4
41 | CCCC(Cc1ccccc1)N1CCCC1 (stereo not shown) [Prolintane, 1-[1-(phenylmethyl)butyl]-pyrrolidine] | 100 ± 21

Same assay, conditions: 1/(DAT IC50) divided by 1/(SERT IC50), uptake; higher = more DAT selective

Row | Compound | Ratio DAT/SERT
42 | CNC(COC)C(=O)c1ccc(C)cc1 (stereo not shown) [Mexedrone, 3-methoxy-2-(methylamino)-1-(p-tolyl)propan-1-one] | 2.0
43 | CNC(C)C(=O)c1cccc(C)c1 (stereo not shown) [3-MMC, 3-methylmethcathinone] | 10
44 | CNC(C)Cc1ccc2c(c1)CCO2 (stereo not shown) [5-MAPDB, 1-(2,3-dihydrobenzofuran-5-yl)-N-methylpropan-2-amine] | 0.041
45 | CC(C(=O)c1ccc(Cl)cc1)N1CCCC1 (stereo not drawn) [4-Cl-α-PPP, 4’-chloro-α-pyrrolidinopropiophenone] | 8.8
46 | CCCCC(C(=O)c1ccc(C)cc1)N1CCCC1 (stereo not drawn) [4-Me-α-PHP, 4’-methyl-α–pyrrolidinohexanophenone] | 120
47 | CN[C@@H](C)Cc1ccccc1 [METH, methamphetamine, reference compound] | 96
48 | CCCCC(C(=O)c1ccc(F)cc1)N1CCCC1 (stereo not drawn) [4-F-α-PHP, 4’-fluoro-α–pyrrolidinohexanophenone] | 240
49 | CCCC(Cc1ccccc1)N1CCCC1 (stereo not shown) [Prolintane, 1-[1-(phenylmethyl)butyl]-pyrrolidine] | 11

Molecular target: T2, hNET
Test: Drug-induced release of preloaded [3H]NE from HEK-hNET cells
Type: cell-based
Conditions: not given

Row | Compound | EC50 [nM]
50 | CNC(COC)C(=O)c1ccc(C)cc1 (stereo not shown) [Mexedrone, 3-methoxy-2-(methylamino)-1-(p-tolyl)propan-1-one] | > 61000
51 | CNC(C)Cc1ccc2c(c1)CCO2 (stereo not shown) [5-MAPDB, 1-(2,3-dihydrobenzofuran-5-yl)-N-methylpropan-2-amine] | 840 ± 310
52 | CN[C@@H](C)Cc1ccccc1 [METH, methamphetamine, reference compound] | 255 ± 78

Same assay, conditions: [3H]NE release

Row | Compound | releasing efficacy at hNET
53 | CNC(COC)C(=O)c1ccc(C)cc1 (stereo not shown) [Mexedrone, 3-methoxy-2-(methylamino)-1-(p-tolyl)propan-1-one] | minimal hNET efficacy

Same assay, conditions: relative to maximal AUC induced by METH (0.3 or 1 μM)

Row | Compound | % maximum release ± sem, hNET [3H]NE [%]
54 | CNC(COC)C(=O)c1ccc(C)cc1 (stereo not shown) [Mexedrone, 3-methoxy-2-(methylamino)-1-(p-tolyl)propan-1-one] | 12.5 ± 3.1
55 | CNC(C)Cc1ccc2c(c1)CCO2 (stereo not shown) [5-MAPDB, 1-(2,3-dihydrobenzofuran-5-yl)-N-methylpropan-2-amine] | 64.2 ± 4.7
56 | CN[C@@H](C)Cc1ccccc1 [METH, methamphetamine, reference compound] | 107.5 ± 8.7

Molecular target: T2, hNET
Test: cell-based
Conditions: not given

Row | Compound | IC50 [nM]
57 | CNC(COC)C(=O)c1ccc(C)cc1 (stereo not shown) [Mexedrone, 3-methoxy-2-(methylamino)-1-(p-tolyl)propan-1-one] | 3190 ± 980
58 | CNC(C)Cc1ccc2c(c1)CCO2 (stereo not shown) [5-MAPDB, 1-(2,3-dihydrobenzofuran-5-yl)-N-methylpropan-2-amine] | 560 ± 180
59 | CC(C(=O)c1ccc(Cl)cc1)N1CCCC1 (stereo not drawn) [4-Cl-α-PPP, 4’-chloro-α-pyrrolidinopropiophenone] | 1420 ± 380
60 | CCCCC(C(=O)c1ccc(C)cc1)N1CCCC1 (stereo not drawn) [4-Me-α-PHP, 4’-methyl-α–pyrrolidinohexanophenone] | 42 ± 11
61 | CCCCC(C(=O)c1ccc(F)cc1)N1CCCC1 (stereo not drawn) [4-F-α-PHP, 4’-fluoro-α–pyrrolidinohexanophenone] | 218 ± 29
62 | CCCC(Cc1ccccc1)N1CCCC1 (stereo not shown) [Prolintane, 1-[1-(phenylmethyl)butyl]-pyrrolidine] | 46 ± 6.8

Same assay, conditions: read-out: Inhibition of [3H]neurotransmitter uptake IC50 ± sem, hNET [3H]NE; HEK-hNET cells

Row | Compound | IC50 [nM]
63 | CNC(C)C(=O)c1cccc(C)c1 (stereo not shown) [3-MMC, 3-methylmethcathinone] | 84 ± 23
64 | CN[C@@H](C)Cc1ccccc1 [METH, methamphetamine, reference compound] | 25.8 ± 3

Molecular target: T3, hDAT
Test: Drug-induced release of preloaded [3H]DA from HEK-hDAT cells
Type: cell-based
Conditions: not given

Row | Compound | EC50 [nM]
65 | CNC(COC)C(=O)c1ccc(C)cc1 (stereo not shown) [Mexedrone, 3-methoxy-2-(methylamino)-1-(p-tolyl)propan-1-one] | > 100000
66 | CNC(C)Cc1ccc2c(c1)CCO2 (stereo not shown) [5-MAPDB, 1-(2,3-dihydrobenzofuran-5-yl)-N-methylpropan-2-amine] | 34700 ± 9600
67 | CN[C@@H](C)Cc1ccccc1 [METH, methamphetamine, reference compound] | 1200 ± 350

Same assay, conditions: [3H]DA release

Row | Compound | releasing efficacy at hDAT
68 | CNC(COC)C(=O)c1ccc(C)cc1 (stereo not shown) [Mexedrone, 3-methoxy-2-(methylamino)-1-(p-tolyl)propan-1-one] | no hDAT efficacy

Same assay, conditions: relative to maximal AUC induced by METH (1 or 10 μM)

Row | Compound | % maximum release ± sem, hDAT [3H]DA [%]
69 | CNC(COC)C(=O)c1ccc(C)cc1 (stereo not shown) [Mexedrone, 3-methoxy-2-(methylamino)-1-(p-tolyl)propan-1-one] | 3.04 ± 0.61
70 | CNC(C)Cc1ccc2c(c1)CCO2 (stereo not shown) [5-MAPDB, 1-(2,3-dihydrobenzofuran-5-yl)-N-methylpropan-2-amine] | 32 ± 13
71 | CN[C@@H](C)Cc1ccccc1 [METH, methamphetamine, reference compound] | 106.7 ± 2.3

Molecular target: T3, hDAT
Test: Inhibition of [125I]RTI-55 binding, HEK-hDAT membranes
Conditions: not given

Row | Compound | Ki [nM]
72 | CNC(COC)C(=O)c1ccc(C)cc1 (stereo not shown) [Mexedrone, 3-methoxy-2-(methylamino)-1-(p-tolyl)propan-1-one] | 8390 ± 540
73 | CNC(C)Cc1ccc2c(c1)CCO2 (stereo not shown) [5-MAPDB, 1-(2,3-dihydrobenzofuran-5-yl)-N-methylpropan-2-amine] | > 30000
74 | CC(C(=O)c1ccc(Cl)cc1)N1CCCC1 (stereo not drawn) [4-Cl-α-PPP, 4’-chloro-α-pyrrolidinopropiophenone] | 1300 ± 450
75 | CCCCC(C(=O)c1ccc(C)cc1)N1CCCC1 (stereo not drawn) [4-Me-α-PHP, 4’-methyl-α–pyrrolidinohexanophenone] | 23 ± 6.2
76 | CN[C@@H](C)Cc1ccccc1 [METH, methamphetamine, reference compound] | 4410 ± 430
77 | CCCCC(C(=O)c1ccc(F)cc1)N1CCCC1 (stereo not drawn) [4-F-α-PHP, 4’-fluoro-α–pyrrolidinohexanophenone] | 122 ± 27
78 | CCCC(Cc1ccccc1)N1CCCC1 (stereo not shown) [Prolintane, 1-[1-(phenylmethyl)butyl]-pyrrolidine] | 219 ± 19

Same assay, conditions: read-out: Inhibition of [125I]RTI-55 binding Ki ± sem, hDAT; HEK-hDAT membranes

Row | Compound | Ki [nM]
79 | CNC(C)C(=O)c1cccc(C)c1 (stereo not shown) [3-MMC, 3-methylmethcathinone] | 6330 ± 720

— publication PMC6500773 (Psychopharmacology, 2018)
